Experimental data reported in paper PMC10360056, “Chemical Evolution of Amphiphilic Xenopeptides for Potentiated Cas9 Ribonucleoprotein Delivery” (Journal of the American Chemical Society, 2023).

Tests used:
[1] = LogD7.4 determination of xenopeptides (octanol-water); format: physicochemical; settings: shake-flask n-octanol/HEPES buffer (20 mM, pH 7.4); 10 μL of 10 mg/mL xenopeptide in water + 90 μL buffer + 100 μL n-octanol; shaken 1400 rpm 24 h; centrifuged, 4 °C 1 h; HPLC, extinction 280 nm; log(Aoctanol/Awater); triplicate
Procedure: LogD7.4 determination of xenopeptides
Octanol-water partition coefficient D at pH 7.4 (logD7.4) was determined as previously reported with slight modification.5
Scheme S3 illustrates the logD7.4 determination procedures of all xenopeptides in this study. Briefly, 10 μL of 10 mg/mL xenopeptides in water were diluted with 90 μL HEPES buffer (20 mM, pH 7.4) in 1.5 mL reaction tubes. 100 μL n-octanol were then added. The tubes were shaken at 1400 rpm for 24 h. Afterwards, the tubes were centrifuged followed by storage at 4 °C for 1 h to separate n-octanol and water phases. 70 μL of each phase were injected for HPLC analysis. The extinction at 280 nm was monitored and the peak area (A) of the xenopeptides was calculated. LogD7.4 was calculated as log(Aoctanol / Awater).
All experiments were performed in triplicate. […]
Cas9 RNP/ssDNA nanocarriers. […]

[2] = tested on: HeLa eGFP/tub cells; experiment: eGFP knockout study by Cas9 RNP nanocarriers, flow cytometry; format: cell-based; settings: 1 nM RNP, 48 h treatment, N/P 24
Procedure: HeLa WT, HeLa eGFP/tub, HeLa GFPd2 (destabilized eGFP), CT26 eGFP/luc and N2a eGFP/luc cells were grown in DMEM medium supplemented with 10 % FBS, 100 U/mL penicillin, and 100 μg/mL streptomycin. The cells were cultured in ventilated flasks in the cell incubator at 37 °C and 5 % CO2 in a humidified atmosphere. The cells were passaged at a confluency of […]
Cells were harvested and resuspended in 600 μL of FACS buffer (PBS buffer containing 10 % FBS). The samples were ana-lyzed by flow cytometry on a CytoFLEX S flow cytometer (Beckman Coulter, CA, USA). For eGFP knockout and cellular uptake experiments, 0.6 μL of 1 μg/μL DAPI was added to each sample for differentiating live and dead cells before the measurement. The DAPI signal and BFP fluorescence were detected with 405 nm excitation and 450 nm emission. The eGFP and ATTO488 fluorescence was assayed with 488 nm excitation and 530 nm emission. The ATTO647N fluorescence was assayed with 640 nm excitation and 670 nm emission. Ten thousand of isolated live cells were counted and evaluated. The data were analyzed using FlowJo 7.6.5 by FlowJo, LLC (Becton, Dickinson and Company, USA). […]
Endosomal escape of Cas9 RNP nanocarriers […]
Next, the […]
cells were washed twice with PBS and then fixed with 4 % PFA at RT for 40 min. Afterwards, the cells were washed and incubated with 2 µg/mL DAPI (for staining cell nuclei) for 30 min. Then, the staining solution was removed and 300 μL fresh PBS were added. The slides w ere stored at 4 °C in the dark until the measurement. […]
Then, the image was conv erted into 8-bit type. The mRuby3/gal8 spots were further determined by Threshold tool, and the number of the spots in the cell cytosol per cell were counted by Analyze Particles tool.
One day prior to the treatments, HeLa eGFP/tub cell s were seeded into 96 -well plates at a density of 5000 cells/well. On the next day, the medium was replaced with 80 μL of fresh medium. 20 μL of Cas9 RNP nanocarriers were added to each well resulting in a series of concentrations of RNP (100, 75, 50, 25, 10, 5, 2.5, 1, 0.5, and 0.1 nM). Lipofectamine CRISPRMAX was tested at the same concentrations of RNP with the preparation procedures as recommended by the manufacturer. The cells were incubated for 48 h. Afterwards, the cells were trypsinized and transfer red to 24-well plates, and incubated for another 72 h. Then, the cells were harvested and prepared for flow cytometry analysis. All experiments were performed in triplicate. eGFP to BFP conversion (HDR) study
One day prior to the treatments, HeLa GFPd2 cel ls were seeded into 96 -well plates at a density of 5000 cells/well. On the next day, the medium was replaced with 80 μL of fresh medium. 20 μL of Cas9 RNP/ssDNA nanocarriers containing different molar ratios of RNP/ssDNA were added to each well resulting i n a series of concentrations of RNP (100, 75, 50, 25, 10, 5, 2.5, 1, 0.5, and 0.1 nM). Lipofectamine CRISPRMAX was tested at the same concentrations of RNP and ssDNA with the prepara-tion procedures as recommended by the manufacturer. The cells were incubat ed for 48 h. Afterwards, the cells were trypsinized and transferred to 24 -well plates, and incubated for another 72 h. Then, the cells were harvested and prepared for flow cytom-etry analysis. […]
Half maximal effective concentration (EC50) values were calculated by GraphPad prism 5. […] All other data were analyzed with GraphPad prism 5 and presented as arithmetic mean ± standard deviation (SD) of at least triplicates. […]

[3] = Characterization of Cas9 RNP nanocarriers by DLS (size, PDI, zeta potential); format: physicochemical; settings: N/P ratio 24, RNP 75 nM, three technical replicates; for PDI of Cas9 RNP nanocarriers / hydrodynamic size (z-average) of Cas9 RNP nanocarriers: DLS, HBG pH 7.4, mean ± SD; for zeta potential of Cas9 RNP nanocarriers: electrophoretic light scattering, HEPES 20 mM pH 7.4, mean ± SD
Procedure: Preparation of Cas9 RNP and Cas9 RNP/ssDNA nanocarriers
Cas9 protein was expressed, purified, and stored at -80 °C in storage buffer (20 mM HEPES, 200 mM KCl, 10 mM MgCl 2, 1 mM DTT, 30 % glycerol) as described previously.6 Cas9 protein and sgRNA (dissolved in RNase-free water) were mixed at 1:1 molar ratio and incubated at RT for 15 min to form the Cas9/sgRNA ribonucleoprotein (RNP) complexes. Afterwards, Cas9 RNP was added into the xenopeptide solution in HBG buffer (pH 7.4) at an N/P (nitrogen t o phosphate of sgRNA) ratio of 24. The solution was mixed thoroughly by pipetting up and down and incubated at RT for another 15 min to generate the final Cas9 RNP nanocarriers. In case of preparing Cas9 RNP/ssDNA nanocarriers for HDR experiments, Cas9 RNP was mixed with ssDNA HDR template at 1:1 molar ratio and then added into the xenopeptide solution in HBG buffer (pH 7.4) at an N/P (nitrogen to phosphate of sgRNA plus ssDNA) ratio of 12. The solution was mixed and incubated for 40 min to generate the Cas9 RNP/ssDNA nanocarriers.
Characterization of Cas9 RNP nanocarriers
The hydrodynamic size, PDI and zeta potential of Cas9 RNP nanocarriers were measured by DLS using a Zetasizer Nano ZS (Malvern Instruments, UK). Cas9 RNP nanocarriers were prepared as desc ribed above. The hydrodynamic size of Cas9 RNP nanocarriers containing 1.25 μg Cas9 protein and 0.25 μg sgRNA (Cas9/sgRNA, 1:1 molar ratio) in 100 μL HBG was measured.
Afterwards, 700 μL HEPES buffer (20 mM, pH 7.4) were added to each sample and the soluti on was mixed for the zeta potential measurement. For the dilution stability study, Cas9 RNP nanocarriers were prepared at an RNP concentration of 375 nM (6.25 μg Cas9 protein and 1.25 μg sgRNA) and then diluted with HBG buffer to a series of RNP concentrat ions (75, 50, 25, 10, 5, 2.5, 1, 0.5, and 0.1 nM). The size and zeta potential of diluted samples were measured as described above.

Compound: CCCCC/C=C\C/C=C\CCCCCCCC(=O)NCCCC[C@H](NC(=O)CCCCCCC/C=C\C/C=C\CCCCC)C(=O)NCCCC[C@H](NC(=O)CNCC(=O)NCCNCCNCCNCCNC(=O)[C@H](Cc1ccc(O)cc1)NC(=O)[C@H](Cc1ccc(O)cc1)NC(=O)[C@H](Cc1ccc(O)cc1)NC(=O)[C@@H](N)CCCCN=[N+]=[N-])C(=O)NCCNCCNCCNCCNC(=O)CNCC(=O)N[C@@H](Cc1ccc(O)cc1)C(=O)N[C@@H](Cc1ccc(O)cc1)C(=O)N[C@@H](Cc1ccc(O)cc1)C(=O)O [IDAtp1-LinA]
- logD [1]: -1.11

Compound: CCCCC/C=C\C/C=C\CCCCCCCC(=O)NCCCC[C@H](NC(=O)CCCCCCC/C=C\C/C=C\CCCCC)C(=O)NCCCC[C@H](NC(=O)[C@H](Cc1c[nH]cn1)NC(=O)CCC(=O)NCCNCCNCCNCCNC(=O)[C@H](Cc1c[nH]cn1)NC(=O)[C@H](Cc1ccc(O)cc1)NC(=O)[C@H](Cc1ccc(O)cc1)NC(=O)[C@H](Cc1ccc(O)cc1)NC(=O)[C@@H](N)CCCCN=[N+]=[N-])C(=O)N[C@@H](Cc1c[nH]cn1)C(=O)NCCNCCNCCNCCNC(=O)CCC(=O)N[C@@H](Cc1c[nH]cn1)C(=O)N[C@@H](Cc1ccc(O)cc1)C(=O)N[C@@H](Cc1ccc(O)cc1)C(=O)N[C@@H](Cc1ccc(O)cc1)C(=O)O [Stp1-H-LinA]
- eGFP knockout [2]: ~80%

Compound: CCCCC/C=C\C/C=C\CCCCCCCC(=O)NCCCC[C@H](NC(=O)CCCCCCC/C=C\C/C=C\CCCCC)C(=O)NCCCC[C@H](NC(=O)[C@H](Cc1c[nH]cn1)NC(=O)CNCC(=O)NCCNCCNCCNCCNC(=O)[C@H](Cc1c[nH]cn1)NC(=O)[C@H](Cc1ccc(O)cc1)NC(=O)[C@H](Cc1ccc(O)cc1)NC(=O)[C@H](Cc1ccc(O)cc1)NC(=O)[C@@H](N)CCCCN=[N+]=[N-])C(=O)N[C@@H](Cc1c[nH]cn1)C(=O)NCCNCCNCCNCCNC(=O)CNCC(=O)N[C@@H](Cc1c[nH]cn1)C(=O)N[C@@H](Cc1ccc(O)cc1)C(=O)N[C@@H](Cc1ccc(O)cc1)C(=O)N[C@@H](Cc1ccc(O)cc1)C(=O)O [IDAtp1-H-LinA]
- logD [1]: -1.51
- PDI of Cas9 RNP nanocarriers [3]: 0.19 ± 0.02
- hydrodynamic size (z-average) of Cas9 RNP nanocarriers [3]: 189.1 ± 4.2 nm
- zeta potential of Cas9 RNP nanocarriers [3]: 13.7 ± 1.2 mV

Compound: CCCCC/C=C\C/C=C\CCCCCCCC(=O)NCCCC[C@H](NC(=O)CCCCCCC/C=C\C/C=C\CCCCC)C(=O)NCCCC[C@H](NC(=O)CCCC(=O)NCCCNCCNCCCNC(=O)[C@H](Cc1ccc(O)cc1)NC(=O)[C@H](Cc1ccc(O)cc1)NC(=O)[C@H](Cc1ccc(O)cc1)NC(=O)[C@@H](N)CCCCN=[N+]=[N-])C(=O)NCCCNCCNCCCNC(=O)CCCC(=O)N[C@@H](Cc1ccc(O)cc1)C(=O)N[C@@H](Cc1ccc(O)cc1)C(=O)N[C@@H](Cc1ccc(O)cc1)C(=O)O [GEIPA1-LinA]
- logD [1]: -0.33

Compound: K(N3)-C-Y3-GEIPA2-K(K(OHSteA)2)-GEIPA2-Y3-C [GEIPA2-C-OHSteA, lipid-modified xenopeptide, X2-C-OHSteA architecture, artificial amino acid GEIPA]
- PDI of Cas9 RNP nanocarriers [3]: 0.28 ± 0.02
- hydrodynamic size (z-average) of Cas9 RNP nanocarriers [3]: 179.8 ± 5.3 nm
- zeta potential of Cas9 RNP nanocarriers [3]: 13.4 ± 2.1 mV
